Results published in patent US12077503B2, “Substituted cyclic amides and their use as herbicides” (FMC CORPORATION, priority 2015, dated 2024).

How the values were obtained:
Format in all cases: in vivo
[1] = test system: barnyardgrass (Echinochloa crus-galli); assay: Test G Pre-Emergence Protocol; settings: Echinochloa crus-galli, pre-emergence, 312 h, evaluated after 13 days; for pest or weed control at 15.625 g/ha: 15.625 g ai/ha, read-out: Barnyard grass damage rating (100=total damage to plant; 0=no damage to plant); for pest or weed control at 62.5 g/ha: 62.5 g ai/ha, 100=total damage to plant, 0=no damage to plant, read-out: plant damage rating, Barnyardgrass; for pest or weed control at 250 g/ha: 250 g ai/ha, read-out: Barnyardgrass damage rating (100=total damage to plant; 0=no damage to plant)
How it was run: (§1)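 Seeds were sown in standard soil and kept one day in a glasshouse (24/16° C day/night, 14 h light, 65% humidity), then sprayed with compound in acetone/water (50:50) containing 0.5% Tween 20 at 15.625, 62.5 or 250 g/ha. Damage was scored after 13 days (0 = none, 100 = total).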

corn (Zea mays) [2] = assay: Test G Pre-Emergence Protocol; settings: Zea mays, pre-emergence, 312 h, evaluated after 13 days; for plant injury at 15.625 g/ha: 15.625 g ai/ha; for plant injury at 15.625 g/ha / plant injury at 250 g/ha: read-out: Corn damage rating (100=total damage to plant; 0=no damage to plant); for plant injury at 62.5 g/ha: 62.5 g ai/ha, 100=total damage to plant, 0=no damage to plant, read-out: plant damage rating, Corn; for plant injury at 250 g/ha: 250 g ai/ha
How it was run: as §1

[3] = test system: giant foxtail (Setaria faberi); assay: Test G Pre-Emergence Protocol; settings: Setaria faberi, pre-emergence, 312 h, evaluated after 13 days; for pest or weed control at 15.625 g/ha: 15.625 g ai/ha; for pest or weed control at 15.625 g/ha / pest or weed control at 250 g/ha: read-out: Foxtail, Giant damage rating (100=total damage to plant; 0=no damage to plant); for pest or weed control at 62.5 g/ha: 62.5 g ai/ha, 100=total damage to plant, 0=no damage to plant, read-out: plant damage rating, Foxtail, Giant; for pest or weed control at 250 g/ha: 250 g ai/ha
How it was run: as §1

[4] = test system: ivy-leaved morning glory (Ipomoea hederacea); assay: Test G Pre-Emergence Protocol; settings: Ipomoea, pre-emergence, 312 h, evaluated after 13 days; for pest or weed control at 15.625 g/ha: 15.625 g ai/ha, read-out: Morning-glory, Ivy-leaved damage rating (100=total damage to plant; 0=no damage to plant); for pest or weed control at 62.5 g/ha: 62.5 g ai/ha, 100=total damage to plant, 0=no damage to plant, read-out: plant damage rating, Morningglory, Ivy-leaved; for pest or weed control at 250 g/ha: 250 g ai/ha, read-out: Morningglory, Ivy-leaved damage rating (100=total damage to plant; 0=no damage to plant)
How it was run: as §1

[5] = test system: redroot pigweed (Amaranthus retroflexus); assay: Test G Pre-Emergence Protocol; settings: Amaranthus retroflexus, pre-emergence, 312 h, evaluated after 13 days; for pest or weed control at 15.625 g/ha: 15.625 g ai/ha; for pest or weed control at 15.625 g/ha / pest or weed control at 250 g/ha: read-out: Pigweed, Redroot damage rating (100=total damage to plant; 0=no damage to plant); for pest or weed control at 62.5 g/ha: 62.5 g ai/ha, 100=total damage to plant, 0=no damage to plant, read-out: plant damage rating, Pigweed, Redroot; for pest or weed control at 250 g/ha: 250 g ai/ha
How it was run: as §1

[6] = test system: velvetleaf (Abutilon theophrasti); assay: Test G Pre-Emergence Protocol; settings: Abutilon theophrasti, pre-emergence, 312 h, evaluated after 13 days; for pest or weed control at 15.625 g/ha: 15.625 g ai/ha; for pest or weed control at 15.625 g/ha / pest or weed control at 250 g/ha: read-out: Velvetleaf damage rating (100=total damage to plant; 0=no damage to plant); for pest or weed control at 62.5 g/ha: 62.5 g ai/ha, 100=total damage to plant, 0=no damage to plant, read-out: plant damage rating, Velvetleaf; for pest or weed control at 250 g/ha: 250 g ai/ha
How it was run: as §1

[7] = test system: barnyardgrass (Echinochloa crus-galli); assay: Test G Post-Emergence Protocol; settings: Echinochloa crus-galli, post-emergence, 312 h; for pest or weed control at 15.625 g/ha: 15.625 g ai/ha, evaluated after 13 days (100=total damage to plant; 0=no damage to plant), read-out: Barnyardgrass damage rating; for pest or weed control at 62.5 g/ha: 62.5 g ai/ha, read-out: Barnyardgrass damage rating (100=total damage to plant; 0=no damage to plant); for pest or weed control at 62.5 g/ha / pest or weed control at 250 g/ha: evaluated after 13 days; for pest or weed control at 250 g/ha: 250 g ai/ha, read-out: damage to plant, Barnyardgrass (100=total damage to plant; 0=no damage to plant)
How it was run: (§2)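 Foliar application was made 8 days after sowing, using an aqueous spray of the active in acetone/water (50:50) with 0.5% Tween 20, at doses of 15.625, 62.5 or 250 g/ha. Injury was assessed 13 days later, where 100 meant the plant was fully damaged.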

corn (Zea mays) [8] = assay: Test G Post-Emergence Protocol; settings: Zea mays, post-emergence, 312 h; for plant injury at 15.625 g/ha: 15.625 g ai/ha, evaluated after 13 days (100=total damage to plant; 0=no damage to plant), read-out: Corn damage rating; for plant injury at 62.5 g/ha: 62.5 g ai/ha, read-out: Corn damage rating (100=total damage to plant; 0=no damage to plant); for plant injury at 62.5 g/ha / plant injury at 250 g/ha: evaluated after 13 days; for plant injury at 250 g/ha: 250 g ai/ha, read-out: damage to plant, Corn (100=total damage to plant; 0=no damage to plant)
How it was run: as §2

[9] = test system: giant foxtail (Setaria faberi); assay: Test G Post-Emergence Protocol; settings: Setaria faberi, post-emergence, 312 h; for pest or weed control at 15.625 g/ha: 15.625 g ai/ha, evaluated after 13 days (100=total damage to plant; 0=no damage to plant), read-out: Foxtail, Giant damage rating; for pest or weed control at 62.5 g/ha: 62.5 g ai/ha, read-out: Foxtail, Giant damage rating (100=total damage to plant; 0=no damage to plant); for pest or weed control at 62.5 g/ha / pest or weed control at 250 g/ha: evaluated after 13 days; for pest or weed control at 250 g/ha: 250 g ai/ha, read-out: damage to plant, Foxtail, Giant (100=total damage to plant; 0=no damage to plant)
How it was run: as §2

[10] = test system: ivy-leaved morning glory (Ipomoea hederacea); assay: Test G Post-Emergence Protocol; settings: Ipomoea, post-emergence, 312 h; for pest or weed control at 15.625 g/ha: 15.625 g ai/ha, evaluated after 13 days (100=total damage to plant; 0=no damage to plant), read-out: Morningglory, Ivy-leaved damage rating; for pest or weed control at 62.5 g/ha: 62.5 g ai/ha, read-out: Morningglory, Ivy-leaved damage rating (100=total damage to plant; 0=no damage to plant); for pest or weed control at 62.5 g/ha / pest or weed control at 250 g/ha: evaluated after 13 days; for pest or weed control at 250 g/ha: 250 g ai/ha, read-out: damage to plant, Morningglory, Ivy-leaved (100=total damage to plant; 0=no damage to plant)
How it was run: as §2

[11] = test system: redroot pigweed (Amaranthus retroflexus); assay: Test G Post-Emergence Protocol; settings: Amaranthus retroflexus, post-emergence, 312 h; for pest or weed control at 15.625 g/ha: 15.625 g ai/ha, evaluated after 13 days (100=total damage to plant; 0=no damage to plant), read-out: Pigweed, Redroot damage rating; for pest or weed control at 62.5 g/ha: 62.5 g ai/ha, read-out: Pigweed, Redroot damage rating (100=total damage to plant; 0=no damage to plant); for pest or weed control at 62.5 g/ha / pest or weed control at 250 g/ha: evaluated after 13 days; for pest or weed control at 250 g/ha: 250 g ai/ha, read-out: damage to plant, Pigweed, Redroot (100=total damage to plant; 0=no damage to plant)
How it was run: as §2

[12] = test system: velvetleaf (Abutilon theophrasti); assay: Test G Post-Emergence Protocol; settings: Abutilon theophrasti, post-emergence, 312 h; for pest or weed control at 15.625 g/ha: 15.625 g ai/ha, evaluated after 13 days (100=total damage to plant; 0=no damage to plant), read-out: Velvetleaf damage rating; for pest or weed control at 62.5 g/ha: 62.5 g ai/ha, read-out: Velvetleaf damage rating (100=total damage to plant; 0=no damage to plant); for pest or weed control at 62.5 g/ha / pest or weed control at 250 g/ha: evaluated after 13 days; for pest or weed control at 250 g/ha: 250 g ai/ha, read-out: damage to plant, Velvetleaf (100=total damage to plant; 0=no damage to plant)
How it was run: as §2

Compound | pest or weed control at 15.625 g/ha [1] | pest or weed control at 62.5 g/ha [1] | pest or weed control at 250 g/ha [1] | plant injury at 15.625 g/ha (corn (Zea mays) [2]) | plant injury at 62.5 g/ha (corn (Zea mays) [2]) | plant injury at 250 g/ha (corn (Zea mays) [2]) | pest or weed control at 15.625 g/ha [3] | pest or weed control at 62.5 g/ha [3] | pest or weed control at 250 g/ha [3] | pest or weed control at 15.625 g/ha [4] | pest or weed control at 62.5 g/ha [4] | pest or weed control at 250 g/ha [4] | pest or weed control at 15.625 g/ha [5] | pest or weed control at 62.5 g/ha [5] | pest or weed control at 250 g/ha [5] | pest or weed control at 15.625 g/ha [6] | pest or weed control at 62.5 g/ha [6] | pest or weed control at 250 g/ha [6] | pest or weed control at 15.625 g/ha [7] | pest or weed control at 62.5 g/ha [7] | other results
CN1C[C@@H](c2ccc(C(F)(F)F)cc2)[C@H](C(=O)Nc2nccnc2Cl)C1=O (racemic) [Compound 1552] | 0% | 0% | 0% | 0% | 0% | 0% | 0% | 0% | 0% | 0% | 0% | 0% | 0% | 0% | 0% | 0% | 0% | 0% | 0% | 0% | pest or weed control at 250 g/ha [7]: 0%; plant injury at 15.625 g/ha (corn (Zea mays) [8]): 10%; plant injury at 62.5 g/ha (corn (Zea mays) [8]): 10%; plant injury at 250 g/ha (corn (Zea mays) [8]): 10%; pest or weed control at 15.625 g/ha [9]: 0%; pest or weed control at 62.5 g/ha [9]: 0%; pest or weed control at 250 g/ha [9]: 0%; pest or weed control at 15.625 g/ha [10]: 0%; pest or weed control at 62.5 g/ha [10]: 0%; pest or weed control at 250 g/ha [10]: 0%; pest or weed control at 15.625 g/ha [11]: 0%; pest or weed control at 62.5 g/ha [11]: 0%; pest or weed control at 250 g/ha [11]: 0%; pest or weed control at 15.625 g/ha [12]: 0%; pest or weed control at 62.5 g/ha [12]: 0%; pest or weed control at 250 g/ha [12]: 0%
CN1C[C@@H](c2ccc(C(F)(F)F)cc2)[C@H](C(=O)Nc2nccs2)C1=O (racemic) [Compound 1554] | 0% | 0% | 10% | 0% | 0% | 0% | 0% | 0% | 20% | 0% | 0% | 0% | 0% | 0% | 30% | 0% | 0% | 0% | 0% | 0% | pest or weed control at 250 g/ha [7]: 0%; plant injury at 15.625 g/ha (corn (Zea mays) [8]): 0%; plant injury at 62.5 g/ha (corn (Zea mays) [8]): 0%; plant injury at 250 g/ha (corn (Zea mays) [8]): 0%; pest or weed control at 15.625 g/ha [9]: 0%; pest or weed control at 62.5 g/ha [9]: 0%; pest or weed control at 250 g/ha [9]: 0%; pest or weed control at 15.625 g/ha [10]: 0%; pest or weed control at 62.5 g/ha [10]: 0%; pest or weed control at 250 g/ha [10]: 0%; pest or weed control at 15.625 g/ha [11]: 0%; pest or weed control at 62.5 g/ha [11]: 0%; pest or weed control at 250 g/ha [11]: 0%; pest or weed control at 15.625 g/ha [12]: 0%; pest or weed control at 62.5 g/ha [12]: 0%; pest or weed control at 250 g/ha [12]: 0%
